Experimental data: patent publication US10688200B2, “Urea-based prostate specific membrane antigen (PSMA) inhibitors for imaging and therapy” (Five Eleven Pharma Inc., priority 2015, dated 2020)

Experiment: Biodistribution of radiotracers in normal mice
Type: in vivo, mouse
Settings: normal male mice
Description: Normal CD-1 male mice were injected via the tail vein with 35 μCi of [^68Ga] radiotracers (0.2 nmole of ligand). […] All organs were removed and blood was also collected. Each organ was weighed, and the tissue radioactivity was measured with an automated gamma counter (Wizard, Perkin Elmer). The % ID/g was calculated by comparison with samples of a standard dilution of the initial dose. All measurements were corrected for decay.

Structure (SMILES) | Biodistribution: Blood (2 min) [% dose/g] | Biodistribution: Bone (2 min) [% dose/g] | Biodistribution: Brain (2 min) [% dose/g] | Biodistribution: Heart (2 min) [% dose/g] | Biodistribution: Kidney (2 min) [% dose/g] | Biodistribution: Liver (2 min) [% dose/g] | Biodistribution: Lung (2 min) [% dose/g] | Biodistribution: Muscle (2 min) [% dose/g] | Biodistribution: Pancreas (2 min) [% dose/g] | Biodistribution: Skin (2 min) [% dose/g] | Biodistribution: Spleen (2 min) [% dose/g] | Biodistribution: Blood (60 min) [% dose/g] | Biodistribution: Bone (60 min) [% dose/g] | Biodistribution: Brain (60 min) [% dose/g] | Biodistribution: Heart (60 min) [% dose/g] | Biodistribution: Kidney (60 min) [% dose/g] | Biodistribution: Liver (60 min) [% dose/g] | Biodistribution: Lung (60 min) [% dose/g] | Biodistribution: Muscle (60 min) [% dose/g] | Biodistribution: Pancreas (60 min) [% dose/g] | other results
O=C(O)CC[C@H](NC(=O)CCc1ccc2c(c1)C[N+]13CC[N+]45CC(=O)[O][68Ga-3]41([O]C(=O)C3)([O]c1ccc(CCC(=O)NCCCCCC(=O)NCCCC[C@H](NC(=O)N[C@@H](CCC(=O)O)C(=O)O)C(=O)O)cc1C5)[O]2)C(=O)O (stereo partly shown) [[^68Ga]1f] | 7.77 ± 1.51 | 2.33 ± 0.38 | 0.25 ± 0.02 | 3.23 ± 0.64 | 45.0 ± 12.57 | 2.43 ± 0.60 | 5.07 ± 1.01 | 1.81 ± 0.07 | 1.72 ± 0.41 | 2.44 ± 0.16 | 3.80 ± 0.97 | 0.97 ± 0.24 | 1.08 ± 0.05 | 0.04 ± 0.01 | 0.52 ± 0.07 | 120 ± 5.65 | 0.79 ± 0.13 | 1.37 ± 0.15 | 0.60 ± 0.04 | 1.13 ± 0.17 | Biodistribution: Skin (60 min): 0.98 ± 0.10 % dose/g; Biodistribution: Spleen (60 min): 2.98 ± 1.86 % dose/g
C[C@H](NC(=O)CCc1ccc2c(c1)C[N+]13CC[N+]45CC(=O)[O][68Ga-3]41([O]C(=O)C3)([O]c1ccc(CCC(=O)NCCCCCC(=O)NCCCC[C@H](NC(=O)N[C@@H](CCC(=O)O)C(=O)O)C(=O)O)cc1C5)[O]2)C(=O)O (stereo partly shown) [[^68Ga]1d] | 7.44 ± 1.40 | 2.01 ± 0.24 | 0.23 ± 0.04 | 3.18 ± 0.48 | 50.3 ± 8.32 | 2.36 ± 0.27 | 4.96 ± 0.67 | 1.96 ± 0.08 | 1.83 ± 0.40 | 2.30 ± 0.20 | 3.40 ± 0.91 | 0.44 ± 0.06 | 0.70 ± 0.09 | 0.03 ± 0.00 | 0.42 ± 0.01 | 141.7 ± 0.82 | 0.68 ± 0.11 | 1.10 ± 0.13 | 0.50 ± 0.07 | 1.02 ± 0.18 | Biodistribution: Skin (60 min): 0.81 ± 0.11 % dose/g; Biodistribution: Spleen (60 min): 5.11 ± 0.97 % dose/g
O=C(O)CC[C@H](NC(=O)N[C@@H](CCCCNC(=O)CCCCCNC(=O)CCc1ccc2c(c1)C[N+]13CC[N+]45CC(=O)[O][68Ga-3]14([O]C(=O)C3)([O]2)[O]c1ccc(CCC(=O)N[C@@H](CC(=O)O)C(=O)O)cc1C5)C(=O)O)C(=O)O (stereo partly shown) [[^68Ga]1e] | 7.47 ± 0.33 | 2.33 ± 0.05 | 0.25 ± 0.07 | 3.12 ± 0.17 | 46.6 ± 3.01 | 2.00 ± 0.09 | 5.08 ± 0.13 | 2.01 ± 0.09 | 1.80 ± 0.17 | 2.46 ± 0.32 | 3.69 ± 0.45 | 0.45 ± 0.14 | 0.52 ± 0.06 | 0.02 ± 0.00 | 0.28 ± 0.05 | 113 ± 28.5 | 0.35 ± 0.09 | 1.14 ± 0.30 | 0.33 ± 0.07 | 0.74 ± 0.19 | Biodistribution: Skin (60 min): 0.67 ± 0.06 % dose/g; Biodistribution: Spleen (60 min): 3.03 ± 0.90 % dose/g
O=C(O)CC[C@H](NC(=O)N[C@@H](CCCCNC(=O)CCCCCNC(=O)CCc1ccc2c(c1)C[N+]13CC[N+]45CC(=O)[O][68Ga-3]14([O]C(=O)C3)([O]2)[O]c1ccc(CCC(=O)NCC(=O)O)cc1C5)C(=O)O)C(=O)O (stereo partly shown) [[^68Ga]1c] | 8.55 ± 0.07 | 2.30 ± 0.07 | 0.28 ± 0.04 | 3.48 ± 0.31 | 47.2 ± 2.68 | 2.91 ± 0.15 | 5.42 ± 0.23 | 2.16 ± 0.34 | 2.20 ± 0.04 | 3.00 ± 0.40 | 3.58 ± 0.48 | 0.58 ± 0.07 | 1.24 ± 0.19 | 0.03 ± 0.01 | 0.43 ± 0.14 | 83.5 ± 14.7 | 0.79 ± 0.15 | 0.90 ± 0.16 | 0.60 ± 0.13 | 1.13 ± 0.17 | Biodistribution: Skin (60 min): 1.07 ± 0.16 % dose/g; Biodistribution: Spleen (60 min): 1.63 ± 0.20 % dose/g
